In PubChem BioAssay AID1259408 (Genetic Toxicology Data Bank (GENE-TOX), 2018) one finds mutagenic call and call data, which are given here for 25 compounds.

In this series the test system is GENE-TOX genotoxicity assays, various organisms and cells. The series is described as follows: GENE-TOX mutagenicity studies. To be noted: for call: Assay Type: In vivo carcinogenicity studies.
Setting [1] is: Species/Cell Type: Salmonella typhimurium (one or more of the five standard strains: TA98, TA100, TA1535, TA1537, and TA1538), Assay Type: Histidine reverse gene mutation, Ames assay, Assay Code: SAL+*, Activation: With metabolic activation, Evaluation Type: Evaluation A (Pre-1980).
Where [2] appears, read: Species/Cell Type: Escherichia coli polA (W3119 vs P3478), Assay Type: Rec-assay, DNA effects (bacterial DNA repair), Assay Code: RE1T, Evaluation Type: Evaluation A (Pre-1980).
The mark [3] stands for this setting: Species/Cell Type: Nonhuman, Assay Code: CCGT, Evaluation Type: Evaluation A (Pre-1980).
Setting [4] is: Species/Cell Type: Saccharomyces cerevisiae, Assay Type: Mitotic recombination or gene conversion, Assay Code: YEH-, Evaluation Type: Evaluation A (Pre-1980).
The mark [5] stands for this setting: Species/Cell Type: Salmonella typhimurium (one or more of the five standard strains: TA98, TA100, TA1535, TA1537, and TA1538), Assay Type: Histidine reverse gene mutation, Ames assay, Assay Code: SAL+, Evaluation Type: Evaluation A (Pre-1980).
Where [6] appears, read: Species/Cell Type: Salmonella typhimurium, Assay Type: Forward and reverse gene mutation, host-mediated assay, Assay Code: HMA-, Evaluation Type: Evaluation A (Pre-1980).
[7] abbreviates: Species/Cell Type: Mammalian polychromatic erythrocytes, Assay Type: Micronucleus test, chromosome aberrations, Assay Code: MNTT, Evaluation Type: Evaluation A (Pre-1980).
Setting [8] is: Species/Cell Type: Mouse, Sex: Male, Assay Type: Sperm morphology, Assay Code: SPI-, Evaluation Type: Evaluation A (Pre-1980).
The mark [9] stands for this setting: Species/Cell Type: Nonhuman, Assay Type: Sister-chromatid exchange (SCE) in vitro, Assay Code: SC2+, Evaluation Type: Evaluation B (Post-1980).
Where [10] appears, read: Species/Cell Type: Salmonella typhimurium (one or more of the five standard strains: TA98, TA100, TA1535, TA1537, and TA1538), Assay Type: Histidine reverse gene mutation, Ames assay, Assay Code: SAL-, Evaluation Type: Evaluation A (Pre-1980).
[11] abbreviates: Species/Cell Type: Saccharomyces cerevisiae, Assay Type: Mitotic recombination or gene conversion, Assay Code: YEC+, Evaluation Type: Evaluation A (Pre-1980).
Where [12] appears, read: Species/Cell Type: Nonhuman, Assay Type: Sister-chromatid exchange (SCE) in vitro, Assay Code: SC2T, Evaluation Type: Evaluation B (Post-1980).

Calls of active or inactive are those of the source. No rule for the calls is given here.

`CC(C)(O)CCc1ccc(O)c2c(=O)c3c(O)c4c(cc3oc12)O[C@H]1OC=C[C@@]41O`: the mutagenic call under setting [1] is “active; positive”.
With `Oc1ccc2ccc3c4ccccc4cc4ccc1c2c43`, the mutagenic call by setting is: (Species/Cell Type: Chinese hamster lung (V79) cells, Assay Type: Forward gene mutation at the HPRT or ouabain locus, Assay Code: V79+/-*, Activation: With metabolic activation, Evaluation Type: Evaluation A (Pre-1980)) “inactive; positive without activation, negative with activation”; (Species/Cell Type: Escherichia coli polA (W3110 vs P3478), Assay Type: Rec-assay, DNA effects (bacterial DNA repair), Assay Code: RE2+, Evaluation Type: Evaluation A (Pre-1980)) “active; positive”; under setting [2], “no conclusion”; under setting [4], “inactive; negative”; under setting [5], “active; positive”; under setting [6], “inactive; negative”. Further, under setting [3], the call was “no conclusion”.
On to `CN(C)c1ccc(N=Nc2ccc(S(=O)(=O)O)cc2)cc1`, for which the mutagenic call is, setting by setting: (Species/Cell Type: Bacillus subtilis (H17 vs M45T), Assay Type: Rec-assay, spot test, DNA effects (bacterial DNA repair), Assay Code: REXT, Evaluation Type: Evaluation A (Pre-1980)) “no conclusion”; under setting [7], “no conclusion”; under setting [8], “inactive; negative”; under setting [9], “active; positive”; under setting [10], “inactive; negative”.
As for `CC1C(c2ccccc2)OCCN1N=O` (configuration not stated), the mutagenic call under setting [6] is “inactive; negative”.
Turning to `c1cc2ccc3cc4c(c5ccc(c1)c2c35)CCC1OC41` (configuration not stated), the mutagenic call (Species/Cell Type: Chinese hamster lung (V79) cells, Assay Type: Forward gene mutation at the HPRT or ouabain locus, Assay Code: V79-, Evaluation Type: Evaluation A (Pre-1980)) is “inactive; negative”; the mutagenic call (Species/Cell Type: Mouse prostate cells, Assay Type: Cell transformation, Assay Code: CTM+, Evaluation Type: Evaluation A (Pre-1980)) was “active; positive”; the mutagenic call under setting [5] was “active; positive”.
Turning to `CNC(=O)CSP(=S)(OC)OC`, the mutagenic call (Species/Cell Type: Allium cepa, Assay Type: Chromosome aberrations, Assay Code: ALC+, Evaluation Type: Evaluation A (Pre-1980)) was “active; positive”; the mutagenic call (Species/Cell Type: Bacillus subtilis (H17 vs M45), Assay Type: Rec-assay, spot test, DNA effects (bacterial DNA repair), Assay Code: REWT, Evaluation Type: Evaluation A (Pre-1980)) is reported as “no conclusion”; the mutagenic call (Species/Cell Type: Drosophila melanogaster, Assay Type: Sex-linked recessive lethal gene mutation, Assay Code: SRL-, Evaluation Type: Evaluation A (Pre-1980)) is “inactive; negative”; the mutagenic call (Species/Cell Type: Human, Assay Type: Sister-chromatid exchange (SCE) in vitro, Assay Code: SC1+D, Dose Response: With dose response, Evaluation Type: Evaluation B (Post-1980)) is “active; positive”; the mutagenic call (Species/Cell Type: Mammalian polychromatic erythrocytes, Assay Type: Micronucleus test, chromosome aberrations, Assay Code: MNT+U, Dose Response: Unconfirmed positive response, Evaluation Type: Evaluation B (Post-1980)) is “active; positive”; the mutagenic call under setting [9] is “active; positive”. Moreover, the mutagenic call under setting [11] was “active; positive” and the mutagenic call (Species/Cell Type: Vicia faba, Assay Type: Chromosome aberrations, Assay Code: VIC+D, Dose Response: With dose response, Evaluation Type: Evaluation A (Pre-1980)) was “active; positive”. The call (Species/Cell Type: Nonhuman, Assay Code: CCG-, Evaluation Type: Evaluation A (Pre-1980)) was “inactive; negative”.
As for `C/C=C1/C[C@@H](C)[C@@](C)(O)C(=O)OC[C@H]2CCN3CC[C@@H](OC1=O)[C@@H]23`, the mutagenic call (Species/Cell Type: Drosophila melanogaster, Assay Type: Sex-linked recessive lethal gene mutation, Assay Code: SRLT, Evaluation Type: Evaluation A (Pre-1980)) is “no conclusion”.
On to `CNC[C@H](O)c1ccc(O)c(O)c1`, for which the mutagenic call is, setting by setting: under setting [7], “no conclusion”; under setting [8], “inactive; negative”.
For `Cc1ccnc2ccccc12`, the mutagenic call under setting [1] is “active; positive”.
`Cn1c[n+](C)cc1[N+](=O)[O-]`: the mutagenic call (Species/Cell Type: Salmonella typhimurium (one or more of the five standard strains: TA98, TA100, TA1535, TA1537, and TA1538), Assay Type: Histidine reverse gene mutation, Ames assay, Assay Code: SALT, Evaluation Type: Evaluation A (Pre-1980)) was “no conclusion”.
With `CC1CN(N=O)C(C)CN1N=O` (configuration not stated), under setting [1], the mutagenic call was “active; positive”.
Regarding `O=C(O)c1ccccc1O`, the mutagenic call (Species/Cell Type: Saccharomyces cerevisiae, Assay Type: Reverse gene mutation, Assay Code: YER+, Evaluation Type: Evaluation A (Pre-1980)) is “active; positive” and the mutagenic call under setting [10] was “inactive; negative”.
On to `C[CH2][Hg][S]c1ccccc1C(=O)O`, for which the mutagenic call under setting [11] was “active; positive”.
Consider `Nc1cc(N)c(N=Nc2ccc(S(=O)(=O)O)cc2)cc1N=Nc1ccc(S(=O)(=O)O)cc1` (tested in a mixture with another compound), for which the mutagenic call under setting [5] was “active; positive”.
As for `Cc1cccc(OC(=O)N(C)N=O)c1`, the mutagenic call runs as follows: (Species/Cell Type: Bacillus subtilis (H17 vs M45T), Assay Type: Rec-assay, spot test, DNA effects (bacterial DNA repair), Assay Code: REX+, Evaluation Type: Evaluation A (Pre-1980)) “active; positive”; (Species/Cell Type: Escherichia coli WP2, Assay Type: Tryptophan reverse gene mutation, Assay Code: WP2+, Evaluation Type: Evaluation A (Pre-1980)) “active; positive”.
Consider `Cc1cc(Cl)ccc1OC(C)C(=O)O` (configuration not stated), for which the mutagenic call under setting [11] was “active; positive”.
For the compound `C=C=O`, the mutagenic call runs as follows: under setting [5], “active; positive”; (Species/Cell Type: Tradescantia species, Assay Type: Chromosome aberrations, Assay Code: TRC+, Evaluation Type: Evaluation A (Pre-1980)) “active; positive”.
Take `CC(=O)Nc1cccc2c1-c1ccccc1C2`: the mutagenic call was “inactive; negative” (Species/Cell Type: Escherichia coli polA (W3110 vs P3478), Assay Type: Rec-assay, DNA effects (bacterial DNA repair), Assay Code: RE2-, Evaluation Type: Evaluation A (Pre-1980)); “no conclusion” under setting [2]; “active; positive” (Species/Cell Type: Fischer rat embryo (RLV/1706) cells, Assay Type: Cell transformation, viral enhanced, Assay Code: CTR+, Evaluation Type: Evaluation A (Pre-1980)); “no conclusion” under setting [7]; “active; positive” (Species/Cell Type: Mouse (BALB/c-3T3) cells, Assay Type: Cell transformation, Assay Code: CTB+D, Dose Response: With dose response, Evaluation Type: Evaluation A (Pre-1980)); “active; positive” (Species/Cell Type: Mouse lymphoma (L5178Y) cells, Assay Type: Forward gene mutation at the thymidine kinase (TK) locus, chromosome aberrations, Assay Code: L51+*, Activation: With metabolic activation, Evaluation Type: Evaluation A (Pre-1980)). In addition, the mutagenic call under setting [12] was “no conclusion”; the mutagenic call (Species/Cell Type: Rat primary hepatocytes, Assay Type: Unscheduled DNA synthesis (UDS) in vitro, DNA effects, Assay Code: UDP-, Evaluation Type: Evaluation A (Pre-1980)) is “inactive; negative”; the mutagenic call under setting [4] was “inactive; negative”; the mutagenic call under setting [1] is “active; positive”; the mutagenic call under setting [6] was “inactive; negative”; the mutagenic call (Species/Cell Type: Syrian hamster embryo (SHE) cells, Assay Type: Cell transformation, clonal assay, Assay Code: CTC-, Evaluation Type: Evaluation A (Pre-1980)) is “inactive; negative”. Further, the call under setting [3] was “no conclusion”.
As for `COC(=O)COc1ccc(Br)cc1CSC(=N)N`, where the note is “Species/Cell Type: Saccharomyces cerevisiae, Assay Type: Reverse gene mutation, Assay Code: YERT, Evaluation Type: Evaluation A (Pre-1980)”, the mutagenic call was “no conclusion”.
Turning to `Nc1ccc(N=Nc2ccccc2)c(N)n1`, the call (Species/Cell Type: Nonhuman, Assay Code: CCG+, Evaluation Type: Evaluation A (Pre-1980)) is “active; positive”.
For the compound `Cc1ccc(O)c(C)c1`, for the setting “Species/Cell Type: Human lymphocytes, Assay Type: Sister-chromatid exchange (SCE) in vitro, Assay Code: SCLT, Evaluation Type: Evaluation B (Post-1980)”, the mutagenic call is “no conclusion”.
For `CCN(CC)CCCC(C)Nc1ccnc2cc(Cl)ccc12` (configuration not stated), the mutagenic call runs as follows: (Species/Cell Type: Escherichia coli polA (W3119 vs P3478), Assay Type: Rec-assay, DNA effects (bacterial DNA repair), Assay Code: RE1+, Evaluation Type: Evaluation A (Pre-1980)) “active; positive”; (Species/Cell Type: Mammalian cell culture, nonhuman, Assay Type: Micronucleus test in vitro, chromosome aberrations, Assay Code: MN&+, Evaluation Type: Evaluation A (Pre-1980)) “active; positive”.
As for `Cc1ccc2ccc3c4ccccc4ccc3c2c1`, under setting [1], the mutagenic call was “active; positive”.
Take `c1csc(-c2ccc(-c3cccs3)s2)c1`: the mutagenic call under setting [12] is reported as “no conclusion”.
`Cc1c2ccccc2c(C)c2c1ccc1cccc(C)c12`: the mutagenic call (Species/Cell Type: Chinese hamster lung (V79) cells, Assay Type: Forward gene mutation at the HPRT or ouabain locus, Assay Code: V79-*, Activation: With metabolic activation, Evaluation Type: Evaluation A (Pre-1980)) was “inactive; negative”.
